# Measurements: article PMC3467217, “A Potent Class of GPR40 Full Agonists Engages the EnteroInsular Axis to Promote Glucose Control in Rodents” (PLoS ONE, 2012)
# Tests used:
# GPR40 = molecular target: T1, GPR40 (Homo sapiens, UniProt O14842); assay: Aequorin Ca2+ flux assay in CHO cell line stably expressing GPR40; type: cell-based; details: CHO-GPR40 stable cell line
# T1 construct: expressed in transfected cells; host or cells: CHO cell line stably expressing GPR40 and aequorin
# Protocol: Since GPR40 agonists with greater intrinsic activity may have improved anti-diabetic properties, we focused our efforts to discover potent synthetic full agonists.
# (§1) GPR40 aequorin, plasmid titration, and inositol phosphate assays were performed as described. For aequorin assays, in addition to transient transfection of GPR40 into CHO cells, a CHO cell line stably expressing both GPR40 and aequorin was generated. GLUTag cells were obtained under a license from Dr. Daniel Drucker, University of Toronto. Competition binding experiments were performed using membranes prepared from A9_GPR40 cells. […] Competition binding assays were carried out in 20 mM Hepes pH 7.5, 5 mM MgCl2, 100 mM NaCl and 0.1% (w/v) free fatty acid BSA and bound radioligand was collected on 96-well GF/C filter plates.
# GPR120 = molecular target: T2, GPR120 (Homo sapiens, UniProt Q5NUL3); assay: GPR120 aequorin assay; type: cell-based; details: weak activity
# T2 construct: expressed in transfected cells
# T2 sequence (Q5NUL3 whole entry, species assumed): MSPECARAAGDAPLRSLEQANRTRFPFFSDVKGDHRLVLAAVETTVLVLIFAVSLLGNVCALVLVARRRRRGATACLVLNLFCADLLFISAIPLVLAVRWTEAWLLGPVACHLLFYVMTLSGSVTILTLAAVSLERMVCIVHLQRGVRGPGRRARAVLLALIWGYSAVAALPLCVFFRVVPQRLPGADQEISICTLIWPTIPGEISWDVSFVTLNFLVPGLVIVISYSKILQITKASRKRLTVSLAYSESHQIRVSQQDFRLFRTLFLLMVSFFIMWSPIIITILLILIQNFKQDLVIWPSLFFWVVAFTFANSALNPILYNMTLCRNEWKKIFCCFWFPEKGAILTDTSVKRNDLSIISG
# From the text: (A) GPR41 (FFAR3) aequorin assay. GPR41 was force coupled to the calcium signaling pathway by co-transfecting the cells with Gqmyri5. (B) GPR43 (FFAR2) aequorin assay. The short chain fatty acid propionate acts as a natural agonist ligand for GPR41 and GPR43. (C) GPR120 aequorin assay. The unsaturated fatty acids α-LNN and DHA act as natural agonist ligands for GPR120. (D) PPAR-gamma luciferase assay using the thiazolidinedione rosiglitazone as a positive control. […] (TIF) Click here for additional data file.
# PPAR alpha = PPAR alpha (Homo sapiens, UniProt Q07869); assay: PPAR-alpha luciferase reporter assay; type: cell-based; details: concentrations up to 10 µM
# PPAR alpha, sequence (Q07869 whole entry, species assumed): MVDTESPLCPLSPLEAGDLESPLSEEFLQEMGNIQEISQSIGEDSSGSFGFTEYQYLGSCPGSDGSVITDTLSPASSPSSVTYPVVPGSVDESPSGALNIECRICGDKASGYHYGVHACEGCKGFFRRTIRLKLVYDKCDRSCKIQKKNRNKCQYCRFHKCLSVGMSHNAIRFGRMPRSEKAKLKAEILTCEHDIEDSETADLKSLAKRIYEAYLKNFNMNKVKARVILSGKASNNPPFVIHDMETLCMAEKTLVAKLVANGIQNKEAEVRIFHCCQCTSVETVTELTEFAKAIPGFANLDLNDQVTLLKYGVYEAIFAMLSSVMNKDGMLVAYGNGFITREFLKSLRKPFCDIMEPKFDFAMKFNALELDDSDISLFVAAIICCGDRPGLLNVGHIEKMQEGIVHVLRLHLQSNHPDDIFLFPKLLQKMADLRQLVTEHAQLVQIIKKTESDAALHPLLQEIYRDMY
# mouse islets = assay: GSIS assay in mouse islets; type: cell-based; details: 16.7 mM glucose
# Protocol: (§2) Mouse islets were isolated and tested for stimulation of GSIS as described. Human islets were purchased from Prodo labs or were obtained from the National Institutes of Health and Juvenile Diabetes Research Foundation supported Islet Cell Resource Consortium (http://icr.coh.org). Islet inositol phosphate assays were performed on islets cells that had been dispersed with trypsin. 10,000 islet cells were plated/well of a 96-well plate and were loaded with ^3H-myo-inositol (0.5 µCi/well) in RPMI overnight prior to treatment. The next day, response to different stimuli was tested in HBSS containing 10 mM LiCl and 0.1% HSA (w/v) for 1 hour at 37°C. Accumulated ^3H-inositol phosphate was measured after capture to SPA beads. Islet perifusion experiments were performed on mouse islets loaded into a Brandel Suprafusion system. Twenty islets were size-matched and loaded per perifusion chamber. Islets were perifused in KRBH containing, sequentially, 3 mM glucose, then 3 mM glucose containing 10 µM drug, 16.7 mM glucose containing 10 µM drug and finally returned to 3 mM glucose containing 10 µM drug. Insulin was measured using an insulin ELISA kit (Alpco). Fetal rat intestinal cells were isolated from e19-day old fetuses of pregnant Sprague-Dawley rats. Briefly, fetal intestines were isolated and digested in HBSS buffer containing 0.5 mg/ml collagenase (Sigma), 0.5 mg/ml of hyaluronidase (Sigma) and 0.05 mg/ml of deoxyribonuclease I (Roche) for 30 minutes at 37°C. The digestion was quenched using HBSS containing 15% FBS. Fetal rat intestinal cells were washed and cultured overnight in DMEM containing 5% FBS in 96-well plates. To test for secretion of GLP-1 and GIP in response to treatments, we incubated cells for 1 hour with treatments in KRBH buffer containing 0.05% BSA (w/v). GLP-1 and GIP1 secreted into the media was measured using ELISA kits specific for GLP-1 (Linco) or GIP (Millipore).
# [1] = test system: islets isolated from GPR40 knockout mice; assay: GSIS assay with islets from GPR40 knock-out mice; type: cell-based, mouse
# Protocol: as §2
# [2] = test system: fetal rat intestinal cells; assay: GLP-1 secretion assay with fetal rat intestinal cells; type: cell-based; details: 1 hour
# From the text: Increased GLP-1 and GIP would be expected to have additional benefits in type 2 diabetics. […] We tested for potential effects on incretin secretion in vitro by using cells isolated from fetal rat intestines.
# Mouse islets were isolated and tested for stimulation of GSIS as described. Human islets were purchased from Prodo labs or were obtained from the National Institutes of Health and Juvenile Diabetes Research Foundation supported Islet Cell Resource Consortium (http://icr.coh.org). Islet inositol phosphate assays were performed on islets cells that had been dispersed with trypsin. 10,000 islet cells were plated/well of a 96-well plate and were loaded with ^3H-myo-inositol (0.5 µCi/well) in RPMI overnight prior to treatment. The next day, response to different stimuli was tested in HBSS containing 10 mM LiCl and 0.1% HSA (w/v) for 1 hour at 37°C. Accumulated ^3H-inositol phosphate was measured after capture to SPA beads. Islet perifusion experiments were performed on mouse islets loaded into a Brandel Suprafusion system. Twenty islets were size-matched and loaded per perifusion chamber. […] Insulin was measured using an insulin ELISA kit (Alpco). […] GLP-1 and GIP1 secreted into the media was measured using ELISA kits specific for GLP-1 (Linco) or GIP (Millipore).
# HF/STZ mice = assay: OGTT in high-fat fed, streptozotocin-treated (HF/STZ) type 2 diabetic mice; type: in vivo, mouse; details: OGTT; for Glucose AUC improvement: 1 hour before glucose
# Protocol: (§3) All procedures on animals were approved by the Amgen San Francisco Institutional Animal Care and Use Committee (approved protocols #11–04 and #2007–00106). The Amgen San Francisco vivarium is an AAALAC accredited facility. Animals were housed under a 12-h light, 12-h dark cycle (lights-on 0600 h and lights-off 1800 h) and were allowed ad libidum access to chow and water. The HF/STZ mice were established as previously described. Briefly, C57BL/6j mice (Jackson labs) at 4 weeks of age were fed a high-fat diet (BioServ S1850, 35% fat) for 3-weeks and then injected with 95 mg/kg streptozotocin (Sigma) ip to induce beta cell dysfunction. The animals continued on the same high fat diet for 3–6 additional weeks. Animals were then randomized into treatment groups based on fasting blood glucose and insulin measures. NONcNZO10/LtJ (RCS10) male mice (Jackson labs) were used at 12-weeks of age and randomized for treatment based on fasting glucose levels. For OGTT experiments, drugs were formulated in 1% HPMC, 10% HPbCD, 1% Tween-80 and dosed via oral gavage. Glucose was administered at 2 g/kg 1-hour post drug dose by oral gavage.
# (§4) For all glucose tolerance tests, glucose and insulin measurements were taken from tail vein samples at various time-points. Blood glucose values were measured on an Accu-Chek glucometer (Roche Diagnostics), while insulin levels were determined using an ELISA (Alpco).
# mouse GPR40 = mouse GPR40 (Mus musculus, UniProt Q76JU9); assay: Mouse GPR40 inositol phosphate accumulation assay; type: cell-based
# mouse GPR40, sequence (Q76JU9 whole entry): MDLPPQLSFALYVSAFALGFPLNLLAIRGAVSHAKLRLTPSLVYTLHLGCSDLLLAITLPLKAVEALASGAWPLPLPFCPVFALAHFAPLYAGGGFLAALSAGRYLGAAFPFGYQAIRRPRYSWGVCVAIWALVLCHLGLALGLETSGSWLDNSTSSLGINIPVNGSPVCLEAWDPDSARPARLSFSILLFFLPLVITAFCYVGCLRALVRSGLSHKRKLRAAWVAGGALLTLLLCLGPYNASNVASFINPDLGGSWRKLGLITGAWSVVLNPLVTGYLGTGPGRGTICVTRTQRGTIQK
# Protocol: as §1
# NONcNZO10/LtJ mice = assay: OGTT in NONcNZO10/LtJ type 2 diabetic mice; type: in vivo, mouse
# Protocol: NONcNZO10/LtJ mice retain an intact leptin pathway but contain polygenic defects contributing to moderate and mature onset obesity and diabetes, [31].
# as §3, §4
# C57/Bl6 mice = assay: IPGTT in C57BL/6j mice with or without GLP-1R antagonist Ex(9-39)NH2; type: in vivo, mouse
# Protocol: An intraperitoneal rather than oral glucose challenge was performed in order to bypass the incretin effect of an oral glucose administration.
# IPGTT experiments with Ex(9–39)NH2 (Bachem) were performed with male C57BL/6j (n = 6–7/group) at 26-weeks of age. Ex(9–39)NH2 was formulated in PBS containing 0.1%BSA and dosed ip at 300 µg/kg.
# as §4
# [3] = rat, mouse, beagle dog and cynomolgus monkey; cited from earlier work
# T1 sequence (O14842 whole entry): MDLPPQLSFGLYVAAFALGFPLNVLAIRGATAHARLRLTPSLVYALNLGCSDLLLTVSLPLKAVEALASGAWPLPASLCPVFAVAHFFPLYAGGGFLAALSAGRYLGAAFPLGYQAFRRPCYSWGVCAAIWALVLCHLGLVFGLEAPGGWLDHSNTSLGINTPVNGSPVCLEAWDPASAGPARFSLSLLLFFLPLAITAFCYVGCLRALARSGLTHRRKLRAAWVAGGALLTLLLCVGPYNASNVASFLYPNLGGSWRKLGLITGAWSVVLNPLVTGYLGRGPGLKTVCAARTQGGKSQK
structure (smiles),measurement,setting,value
COc1ccc(F)c(-c2ccc(COc3cccc([C@@H](CC(=O)O)C4CC4)c3)cc2C2=CCCC2(C)C)c1 [AM-1638],EC50,GPR40,160 ± 10 nM
same,Emax,"GPR40; compared to natural free fatty acid ligands, read-out: Emax (efficacy)",100%
same,EC50,GPR120,~5000 nM
same,activation of PPAR alpha,PPAR alpha,did not activate
same,"increase of insulin secretion, fold from that of AMG 837",mouse islets,3–4 fold
same,EC50,mouse islets; read-out: EC50 for potentiation of insulin secretion,990 ± 150 nM
same,GSIS response of GPR40 knockout islets,[1],did not respond
same,GLP-1 release in vitro,[2],could stimulate GLP-1 release
same,Glucose AUC improvement,HF/STZ mice; 10 mg/kg oral,15%
same,Glucose AUC improvement,HF/STZ mice; 30 mg/kg oral,23%
same,Glucose AUC improvement,HF/STZ mice; 60 mg/kg oral,35%
same,Glucose AUC improvement,HF/STZ mice; 100 mg/kg oral,48%
same,"insulin secretion, fold greater than AMG 837",HF/STZ mice; higher doses,1.5–2.2 fold
same,EC50,mouse GPR40,12.9 ± 1.4 nM
same,GIP levels vs vehicle,"NONcNZO10/LtJ mice; 60 mg/kg, 15 minutes after glucose challenge",did not reach statistical significance
same,insulin and GLP-1 levels 15 minutes after glucose challenge,"NONcNZO10/LtJ mice; 60 mg/kg, vs vehicle and baseline",significantly increased
same,Glucose AUC change as printed in figure 5B,"NONcNZO10/LtJ mice; OGTT, 60mg/kg",-26%
same,Glucose AUC reduction compared to vehicle,"NONcNZO10/LtJ mice; OGTT, single 60 mg/kg oral dose",26%
same,glucose excursions during OGTT,NONcNZO10/LtJ mice; single 60 mg/kg oral dose,almost complete suppression
same,Glucose AUC reduction,C57/Bl6 mice; AM-1638 60 mg/kg alone,~53%
same,Glucose AUC reduction,C57/Bl6 mice; AM-1638 60 mg/kg in the presence of exendin(9-39)NH2 300 µg/kg ip,~25%
same,pharmacokinetic properties,[3],suitable for oral dosing
